Source: patent US8450318B2 (priority 2007, dated 2013)
≈ marks a conversion by molar mass, not a printed value. Where two headings read alike, the source gives them in different places.

Assays:
[1] = test system: Feline Corona virus; test: Activity on feline corona virus in CRFK cells; format: cell-based
[2] = test system: human corona (SARS) virus; test: microbe, parasite or virus in culture; format: cell-based; details: human corona (SARS) virus
[3] = test system: CRFK cells; details: cytotoxicity, feline corona virus test
[4] = test system: CRFK cells; details: cytotoxicity, human corona virus test
[5] = test system: Influenza A H1N1 subtype; test: Anti-influenza activity in MDCK cells, Influenza A H1N1; format: cell-based; details: for EC50 Influenza A H1N1 subtype MTS: cell viability, formazan-based MTS assay; for EC50 Influenza A H1N1 subtype visual CPE score: visual scoring of the CPE; for EC50: reference compounds
Source text: (§1) MDCK cells (Madin Darby canine kidney cells) have been used for the experiments shown in table 5 using standard procedures known in the art.

[6] = test system: Influenza A H3N2 subtype; test: Anti-influenza activity in MDCK cells, Influenza A H3N2; format: cell-based; details: for EC50 Influenza A H3N2 subtype MTS: cell viability, formazan-based MTS assay; for EC50 Influenza A H3N2 subtype visual CPE score: visual scoring of the CPE; for EC50: reference compounds
Source text: as §1

[7] = test system: Influenza B; test: Anti-influenza activity in MDCK cells, Influenza B; format: cell-based; details: for EC50 Influenza B MTS: cell viability, formazan-based MTS assay; for EC50 Influenza B visual CPE score: visual scoring of the CPE; for EC50: reference compounds
[8] = test system: HIV-1; details: Table 1; CEM cells, prevention of syncytium formation by 50%, 4 to 5 days
[9] = test system: HIV-2; test: Antiretrovirus assay, HIV-2; details: Table 1
[10] = test system: CEM cells; test: Cytostatic/cytotoxic activity, inhibition of CEM cell proliferation; details: Table 1; for CC50: 50% cytostatic concentration, CEM cell proliferation
[11] = test system: Herpes simplex virus-1 (KOS); test: Antiviral activity, Herpes simplex virus-1 (KOS); format: cell-based; details: Human alphaherpesvirus 1; Table 4, reference compounds
[12] = test system: Herpes simples virus-2 (G); test: Antiviral activity, Herpes simplex virus-2 (G); format: cell-based; details: Human alphaherpesvirus 2; Table 4, reference compounds
[13] = test system: Vaccinia virus; test: microbe, parasite or virus in culture; format: cell-based; details: Orthopoxvirus vaccinia, read-out: EC50 Vaccinia virus
[14] = test system: Vesicular stomatitis virus; test: microbe, parasite or virus in culture; format: cell-based; details: read-out: EC50 Vesicular stomatitis virus
[15] = test system: Herpes simplex virus-1 TK KOS-ACV^r; test: Antiviral activity, Herpes simplex virus-1 TK KOS-ACVr; format: cell-based; details: Human alphaherpesvirus 1, read-out: EC50 Herpes simplex virus-1 TK KOS-ACV^r
[16] = MTS, read-out: EC50 Influenza A H1N1 subtype MTS
[17] = visual CPE, read-out: EC50 Influenza A H1N1 subtype visual CPE score
[18] = MTS, read-out: EC50 Influenza A H3N2 subtype MTS
[19] = visual CPE, read-out: EC50 Influenza A H3N2 subtype visual CPE score
[20] = MTS, read-out: EC50 Influenza B MTS
[21] = visual CPE, read-out: EC50 Influenza B visual CPE score

SMILES | EC50 Influenza A H1N1 subtype MTS [5] [µg/mL] | EC50 Influenza A H1N1 subtype visual CPE score [5] [µg/mL] | EC50 Influenza A H3N2 subtype MTS [6] [µg/mL] | EC50 Influenza A H3N2 subtype visual CPE score [6] [µg/mL] | EC50 Influenza B MTS [7] [µg/mL] | EC50 Influenza B visual CPE score [7] [µg/mL] | EC50 HIV-1 [8] [µg/mL] | EC50 HIV-2 [9] [µg/mL] | CC50 [10] [µg/mL] | other results
Cc1ccc2ccc(NCc3c(C)c(CNc4ccc5ccc(C)nc5n4)c(C)c(CNc4ccc5ccc(C)nc5n4)c3C)nc2n1 [Compound 24] |  |  |  |  |  |  |  |  |  | Feline Corona virus EC50 [1]: 42 ± 0 µg/mL; Human Corona virus EC50 [2]: 38 ± 1 µg/mL; Feline Corona virus CC50 [3]: >100 µg/mL; Human Corona virus CC50 [4]: >100 µg/mL
CCc1c(CNc2ccc3ccc(C)nc3n2)c(CC)c(CNc2ccc3ccc(C)nc3n2)c(CC)c1CNc1ccc2ccc(C)nc2n1 [Compound 25] | >4 | >4 | >4 | >4 | >4 | >4 | 1.25 ± 0.35 (≈ 1.85 µM) | >20 | 81.7 ± 26.0 (≈ 121 µM) | Feline Corona virus EC50 [1]: 9.1 ± 0.4 µg/mL; Human Corona virus EC50 [2]: 20 ± 5 µg/mL; Feline Corona virus CC50 [3]: 92 ± 9 µg/mL; Human Corona virus CC50 [4]: >100 µg/mL; cytotoxicity (in words) [10]: low cytotoxicity
Cc1ccc(NCc2c(C)c(CNc3ccc(C)cn3)c(C)c(CNc3ccc(C)cn3)c2C)nc1 [Compound 26] |  |  |  |  |  |  | >4 | >4 | 22.0 ± 8.2 (≈ 45.8 µM) | 
CC(=NO)c1cccc(NCc2c(C)c(CNc3cccc(C(C)=NO)c3)c(C)c(CNc3cccc(C(C)=NO)c3)c2C)c1 [Compound 27] |  |  |  |  |  |  | >4 | >4 | 20.4 ± 11.4 (≈ 33.6 µM) | 
CCc1c(CNc2cccc(C(C)=NO)c2)c(CC)c(CNc2cccc(C(C)=NO)c2)c(CC)c1CNc1cccc(C(C)=NO)c1 [Compound 28] |  |  |  |  |  |  | >4 | >4 | 10.0 ± 0.98 (≈ 15.4 µM) | 
CCc1c(CN)c(CC)c(CNc2cc(C)cc(C)n2)c(CC)c1CNc1cc(C)cc(C)n1 [Compound 29] | >0.8 | >0.8 | >0.8 | >0.8 | >0.8 | >0.8 | >0.16 | >0.8 | 1.69 ± 0.02 (≈ 3.68 µM) | 
Cc1cccc(NC(=O)c2cc(C(=O)Nc3cccc(C)n3)cc(C(=O)Nc3cccc(C)n3)c2)n1 [Compound 30] |  |  |  |  |  |  | >20 | >20 | >100 | cytotoxicity (in words) [10]: low cytotoxicity
Nc1nc(O)c2ncn(COC(CO)CO)c2n1 [Ganciclovir] |  |  |  |  |  |  |  |  |  | EC50 [11]: 6.4 nM; EC50 [12]: 32 nM; EC50 [13]: 100000 nM; EC50 [14]: > 150000 nM; EC50 [15]: 12000 nM
CCC(CC)O[C@@H]1C=C(C(=O)O)C[C@H](N)[C@H]1NC(C)=O [Oseltamivir caboxylate, reference compound] |  |  |  |  |  |  |  |  |  | EC50 [5, 16]: 3 nM; EC50 [5, 17]: 4 nM; EC50 [6, 18]: 1600 nM; EC50 [6, 19]: 1800 nM; EC50 [7, 20]: 2600 nM; EC50 [7, 21]: 4000 nM
Cc1ccc(O)c(NC(=O)c2cc(C(=O)Nc3cc(C)ccc3O)cc(C(=O)Nc3cc(C)ccc3O)c2)c1 [Phe-Kresol] | >0.8 | >0.8 | >0.8 | >0.8 | >0.8 | >0.8 |  |  |  | 
CC(N)C12CC3CC(CC(C3)C1)C2 (centres unmarked) [Rimantadin, reference compound] |  |  |  |  |  |  |  |  |  | EC50 [5, 16]: 9900 nM; EC50 [5, 17]: 8900 nM; EC50 [6, 18]: 900 nM; EC50 [6, 19]: 2100 nM; EC50 [7, 20]: > 100000 nM; EC50 [7, 21]: > 100000 nM
Cc1ccc2ccc(NC(=O)c3cccc(C(=O)Nc4ccc5ccc(C)nc5n4)c3)nc2n1 [Sc74] | 9.6 (≈ 21.4 µM) | 15.1 ± 7.0 (≈ 33.7 µM) | 12.5 (≈ 27.9 µM) | 14.5 ± 7.8 (≈ 32.3 µM) | 9.9 (≈ 22.1 µM) | 10.9 ± 1.1 (≈ 24.3 µM) |  |  |  | Feline Corona virus EC50 [1]: 29.0 ± 4.8 µg/mL; Feline Corona virus CC50 [3]: >100 µg/mL
Cc1cc(C)c2ccc(NC(=O)c3cc(C(=O)Nc4ccc5c(C)cc(C)nc5n4)cc(C(=O)Nc4ccc5c(C)cc(C)nc5n4)c3)nc2n1 [Sc75] | >4 | >4 | >4 | >4 | >4 | >4 |  |  |  | 
